Results reported in PubChem BioAssay AID248 (DTP/NCI, 2004).
Inconclusive results and toxic doses are left out. No stated cut-off is given here; in the data, active means T/C of 150% or more; inactive means T/C below 125%.

Tested on: L1210 leukemia ip in BDF1 mice, survival T/C
Assay: NCI In Vivo Anticancer Drug Screen. Data for tumor model L1210 Leukemia (intraperitoneal) in B6D2F1 (BDF1) mice
Settings: endpoint: mean survival time, higher = longer survival
Summary of the method: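 Value reflects the ratio of survival in compound-treated mice to survival in vehicle-treated controls, with both groups carrying the same transplanted tumor.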

[1] = dose: 100.0 mg/kg/injection, schedule: Q01DX001 (ip), vehicle: Klucel (hydroxypropylcellulose) (HPC)
[2] = dose: 200.0 mg/kg/injection, schedule: Q01DX001 (ip), vehicle: Klucel (hydroxypropylcellulose) (HPC)
[3] = dose: 400.0 mg/kg/injection, schedule: Q01DX001 (ip), vehicle: Klucel (hydroxypropylcellulose) (HPC)
[4] = dose: 100.0 mg/kg/injection, schedule: Q01DX009 (ip), vehicle: Klucel (hydroxypropylcellulose) (HPC)
[5] = dose: 200.0 mg/kg/injection, schedule: Q01DX009 (ip), vehicle: Klucel (hydroxypropylcellulose) (HPC)
[6] = dose: 400.0 mg/kg/injection, schedule: Q01DX009 (ip), vehicle: Klucel (hydroxypropylcellulose) (HPC)
[7] = dose: 100.0 mg/kg/injection, schedule: Q04DX003 (ip), vehicle: Klucel (hydroxypropylcellulose) (HPC)
[8] = dose: 200.0 mg/kg/injection, schedule: Q04DX003 (ip), vehicle: Klucel (hydroxypropylcellulose) (HPC)
[9] = dose: 400.0 mg/kg/injection, schedule: Q04DX003 (ip), vehicle: Klucel (hydroxypropylcellulose) (HPC)
[10] = dose: 50.0 mg/kg/injection, schedule: Q01DX009 (ip), vehicle: Klucel (hydroxypropylcellulose) (HPC)
[11] = dose: 100.0 mg/kg/injection, schedule: Q04DX002 (ip), vehicle: Klucel (hydroxypropylcellulose) (HPC)
[12] = dose: 200.0 mg/kg/injection, schedule: Q04DX002 (ip), vehicle: Klucel (hydroxypropylcellulose) (HPC)
[13] = dose: 400.0 mg/kg/injection, schedule: Q04DX002 (ip), vehicle: Klucel (hydroxypropylcellulose) (HPC)
[14] = dose: 50.0 mg/kg/injection, schedule: Q01DX001 (ip), vehicle: saline
[15] = dose: 100.0 mg/kg/injection, schedule: Q01DX001 (ip), vehicle: saline
[16] = dose: 200.0 mg/kg/injection, schedule: Q01DX001 (ip), vehicle: saline
[17] = dose: 400.0 mg/kg/injection, schedule: Q01DX001 (ip), vehicle: saline

Measured: T/C

COC1(OC)C2C=CC1C1C(=O)CC1C(=O)C2 (configuration not stated)
inactive: dose: 75.0 mg/kg/injection, schedule: Q01DX009 (ip), vehicle: Klucel (hydroxypropylcellulose) (HPC) 108 % of control | [1] 100 % of control | dose: 150.0 mg/kg/injection, schedule: Q01DX009 (ip), vehicle: Klucel (hydroxypropylcellulose) (HPC) 113 % of control | [2] 103 % of control | dose: 300.0 mg/kg/injection, schedule: Q01DX009 (ip), vehicle: Klucel (hydroxypropylcellulose) (HPC) 105 % of control | [3] 90 % of control

O=C(CSCCN1CCCCC1)N1c2ccccc2Sc2ccccc21
inactive: dose: 10.0 mg/kg/injection, schedule: Q01DX009 (ip), vehicle: saline 102 % of control | dose: 20.0 mg/kg/injection, schedule: Q01DX009 (ip), vehicle: saline 100 % of control | dose: 40.0 mg/kg/injection, schedule: Q01DX009 (ip), vehicle: saline 96 % of control

CCOc1ccc(NC(=O)c2cccc(Cl)c2)cc1
inactive: dose: 100.0 mg/kg/injection, schedule: Q01DX009 (ip), vehicle: saline 109 % of control | dose: 200.0 mg/kg/injection, schedule: Q01DX009 (ip), vehicle: saline 96 % of control | dose: 400.0 mg/kg/injection, schedule: Q01DX009 (ip), vehicle: saline 96 % of control

CCCCC(CCCC)(C(N)=O)C(=O)OCC
inactive: [4] 105 % of control | [5] 100 % of control | [6] 94 % of control

O=C1CC(c2ccccc2)(c2ccccc2)c2ccccc21
inactive: dose: 25.6 mg/kg/injection, schedule: Q04DX002 (ip), vehicle: saline with Tween-80 98 % of control | dose: 64.0 mg/kg/injection, schedule: Q04DX002 (ip), vehicle: saline with Tween-80 102 % of control | dose: 160.0 mg/kg/injection, schedule: Q04DX002 (ip), vehicle: saline with Tween-80 91 % of control | dose: 400.0 mg/kg/injection, schedule: Q04DX002 (ip), vehicle: saline with Tween-80 96 % of control

CCCCCC1CCC(OC(=O)NC)CC1 (configuration not stated)
inactive: [1] 99 % of control | [2] 100 % of control | [3] 94 % of control

Cc1ccc(N2C=[N+](C)c3ccc(C)cc3C2)cc1
inactive: [7] 100 % of control | [8] 97 % of control

CCCNS(=O)(=O)c1ccc(C(=S)OCC)cc1
inactive: [1] 98 % of control | [2] 98 % of control | [3] 94 % of control

CC(=O)CC(=O)NC1CCCCCC1
inactive: [4] 92 % of control | [7] 100 % of control | [5] 103 % of control | [8] 100 % of control | [6] 97 % of control | [9] 96 % of control

O=[N+]([O-])/C=C/c1ccc(Cl)cc1
inactive: dose: 25.0 mg/kg/injection, schedule: Q01DX009 (ip), vehicle: Klucel (hydroxypropylcellulose) (HPC) 97 % of control | [10] 103 % of control

CCOC(=O)C1(C(=O)OCC)CCC(C(=O)OCC)(C(=O)OCC)CC1
inactive: [11] 101 % of control | [12] 101 % of control | [13] 101 % of control

CCOC(=O)C(=CNc1cc(N)nc(SC)n1)C(=O)OCC
inactive: [11] 114 % of control | [12] 103 % of control | [13] 100 % of control

Cc1cc2c(cc1C)N(C(=O)CN1CCCCC1)CC(=O)N2
inactive: dose: 75.0 mg/kg/injection, schedule: Q01DX001 (ip), vehicle: saline 93 % of control | dose: 150.0 mg/kg/injection, schedule: Q01DX001 (ip), vehicle: saline 91 % of control | dose: 300.0 mg/kg/injection, schedule: Q01DX001 (ip), vehicle: saline 93 % of control

C=CCC1(C(C)C=C)C(=O)NC(=O)NC1=O (configuration not stated)
inactive: dose: 75.0 mg/kg/injection, schedule: Q01DX001 (ip), vehicle: carboxymethylcellulose (CMC) 98 % of control | dose: 150.0 mg/kg/injection, schedule: Q01DX001 (ip), vehicle: carboxymethylcellulose (CMC) 91 % of control | dose: 300.0 mg/kg/injection, schedule: Q01DX001 (ip), vehicle: carboxymethylcellulose (CMC) 96 % of control

CCCCOC(=O)CCSCCC(=O)OCCCC
inactive: dose: 100.0 mg/kg/injection, schedule: Q01DX009 (ip), vehicle: saline with Tween-80 102 % of control | dose: 200.0 mg/kg/injection, schedule: Q01DX009 (ip), vehicle: saline with Tween-80 94 % of control | dose: 400.0 mg/kg/injection, schedule: Q01DX009 (ip), vehicle: saline with Tween-80 102 % of control

OCCNCc1ccc2ccccc2n1
inactive: dose: 75.0 mg/kg/injection, schedule: Q04DX003 (ip), vehicle: saline 96 % of control | dose: 150.0 mg/kg/injection, schedule: Q04DX003 (ip), vehicle: saline 100 % of control | dose: 300.0 mg/kg/injection, schedule: Q04DX003 (ip), vehicle: saline 96 % of control

COc1cccc(OC)c1C(=O)O
inactive: [11] 100 % of control | [12] 111 % of control | [13] 100 % of control

Cc1ccc(S(=O)(=O)N2CC(O)C(O)C2CO)cc1 (configuration not stated)
inactive: dose: 50.0 mg/kg/injection, schedule: Q01DX005 (ip), vehicle: saline 96 % of control | dose: 100.0 mg/kg/injection, schedule: Q01DX005 (ip), vehicle: saline 104 % of control | dose: 200.0 mg/kg/injection, schedule: Q01DX005 (ip), vehicle: saline 102 % of control

N#CSC/C=C/Cl
inactive: [10] 94 % of control | [4] 107 % of control | [7] 92 % of control | [8] 90 % of control

c1ccc2c3c([nH]c2c1)CCCC3
inactive: [4] 97 % of control | [7] 107 % of control | [5] 113 % of control | [8] 105 % of control | [9] 102 % of control

C/C=C/C(=O)Nc1ccccc1F
inactive: [4] 93 % of control | [5] 103 % of control

CC(=O)[OH2+].CC(=O)[OH2+].[O-]c1ccc2ccccc2c1CN1CCCCC1.[O-]c1ccc2ccccc2c1CN1CCCCC1.[O]=[U+2]=[O].[O]=[U+2]=[O]
inactive: dose: 5.0 mg/kg/injection, schedule: Q01DX001 (ip), vehicle: other 105 % of control | dose: 10.0 mg/kg/injection, schedule: Q01DX001 (ip), vehicle: other 111 % of control

CCCCCCCCCCCCc1ccccc1
inactive: [14] 91 % of control | [15] 97 % of control | [16] 97 % of control | [17] 101 % of control

Cc1ccc([N+](=O)[O-])cc1[I+]c1ccccc1C(=O)[O-]
inactive: [14] 103 % of control | [15] 106 % of control | [16] 91 % of control | [17] 101 % of control

CCOC(=O)C1(C(C)=O)CC=CC1
inactive: [15] 100 % of control | [16] 104 % of control | [17] 100 % of control

CSc1ccc(NC(=O)Nc2ccccc2C)cc1
inactive: [4] 100 % of control | [7] 93 % of control | [5] 94 % of control | [8] 95 % of control | [6] 96 % of control | [9] 88 % of control

COC(=O)/C(=C\c1ccccc1)CN1CCCCC1
inactive: dose: 25.0 mg/kg/injection, schedule: Q01DX001 (ip), vehicle: saline with Tween-80 101 % of control | dose: 50.0 mg/kg/injection, schedule: Q01DX001 (ip), vehicle: saline with Tween-80 93 % of control | dose: 100.0 mg/kg/injection, schedule: Q01DX001 (ip), vehicle: saline with Tween-80 104 % of control
